“Also recorded” adds a separate entry of the source.

For data set [1] the following is noted: mouse; cited from earlier work.
Data set [2] addresses T1, ovine COX-1 (Ovis aries, UniProt P05979).
T1 sequence (P05979 25-600): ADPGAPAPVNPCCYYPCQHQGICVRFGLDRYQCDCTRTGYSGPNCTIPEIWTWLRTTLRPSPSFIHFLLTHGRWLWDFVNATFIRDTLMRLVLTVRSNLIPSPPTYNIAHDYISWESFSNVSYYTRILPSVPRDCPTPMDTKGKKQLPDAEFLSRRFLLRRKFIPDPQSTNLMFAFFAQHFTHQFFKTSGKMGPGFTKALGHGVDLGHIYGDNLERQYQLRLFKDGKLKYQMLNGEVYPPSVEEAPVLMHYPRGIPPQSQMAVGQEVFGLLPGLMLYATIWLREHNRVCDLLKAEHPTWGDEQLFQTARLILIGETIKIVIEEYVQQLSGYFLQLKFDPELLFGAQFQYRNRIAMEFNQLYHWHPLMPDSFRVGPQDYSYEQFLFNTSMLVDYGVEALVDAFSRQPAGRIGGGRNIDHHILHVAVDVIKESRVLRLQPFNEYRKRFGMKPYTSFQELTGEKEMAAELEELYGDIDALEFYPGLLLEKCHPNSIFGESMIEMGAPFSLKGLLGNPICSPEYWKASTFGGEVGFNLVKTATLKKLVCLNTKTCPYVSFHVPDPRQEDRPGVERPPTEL
The conditions noted are these: read-out: concentration reducing the rate of cyclooxygenation to about half; COX-1, AA as substrate; cited from earlier work.

Data set [3] addresses T2, human recombinant COX-2 (Homo sapiens, UniProt P35354).
T2 sequence (P35354 18-604): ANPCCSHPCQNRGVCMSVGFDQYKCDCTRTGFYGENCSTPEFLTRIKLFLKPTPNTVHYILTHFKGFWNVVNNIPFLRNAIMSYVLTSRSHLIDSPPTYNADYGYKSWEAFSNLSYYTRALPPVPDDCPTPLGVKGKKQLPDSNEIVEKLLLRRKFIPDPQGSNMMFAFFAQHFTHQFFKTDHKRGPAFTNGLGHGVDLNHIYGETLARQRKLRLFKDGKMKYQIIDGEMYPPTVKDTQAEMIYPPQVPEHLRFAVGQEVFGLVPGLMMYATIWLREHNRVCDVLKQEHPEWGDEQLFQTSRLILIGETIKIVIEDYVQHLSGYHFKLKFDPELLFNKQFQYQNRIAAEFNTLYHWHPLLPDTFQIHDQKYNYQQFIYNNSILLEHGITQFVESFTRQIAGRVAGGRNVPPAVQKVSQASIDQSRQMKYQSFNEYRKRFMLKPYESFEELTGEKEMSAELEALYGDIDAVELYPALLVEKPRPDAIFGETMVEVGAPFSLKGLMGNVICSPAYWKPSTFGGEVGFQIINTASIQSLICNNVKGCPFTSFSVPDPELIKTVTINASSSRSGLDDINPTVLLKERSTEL
The conditions noted are these: cited from earlier work.

For data set [4] the following is noted: in vivo; cited from earlier work.
The test system of a further data set is FAAH. Set-up: method as in PMID 25757568. The settings on record: cited from earlier work.
Another data set relates to COX-1. Set-up: method as in PMID 25757568. The settings on record: cited from earlier work.
The next data set relates to COX-2. Set-up: method as in PMID 25757568. The conditions noted are these: cited from earlier work.
Details of data set [5]: method as in PMID 25757568. The conditions noted are these: cited from earlier work.
Data set [6] concerns the target T3, rat brain FAAH (Rattus norvegicus, UniProt P97612).
T3 construct: hydrolysis of 0.5 µM [^3H]AEA by rat brain homogenates; from tissue; host or cells: rat brain (minus cerebella), washed membrane homogenate
T3 sequence (P97612 1-579): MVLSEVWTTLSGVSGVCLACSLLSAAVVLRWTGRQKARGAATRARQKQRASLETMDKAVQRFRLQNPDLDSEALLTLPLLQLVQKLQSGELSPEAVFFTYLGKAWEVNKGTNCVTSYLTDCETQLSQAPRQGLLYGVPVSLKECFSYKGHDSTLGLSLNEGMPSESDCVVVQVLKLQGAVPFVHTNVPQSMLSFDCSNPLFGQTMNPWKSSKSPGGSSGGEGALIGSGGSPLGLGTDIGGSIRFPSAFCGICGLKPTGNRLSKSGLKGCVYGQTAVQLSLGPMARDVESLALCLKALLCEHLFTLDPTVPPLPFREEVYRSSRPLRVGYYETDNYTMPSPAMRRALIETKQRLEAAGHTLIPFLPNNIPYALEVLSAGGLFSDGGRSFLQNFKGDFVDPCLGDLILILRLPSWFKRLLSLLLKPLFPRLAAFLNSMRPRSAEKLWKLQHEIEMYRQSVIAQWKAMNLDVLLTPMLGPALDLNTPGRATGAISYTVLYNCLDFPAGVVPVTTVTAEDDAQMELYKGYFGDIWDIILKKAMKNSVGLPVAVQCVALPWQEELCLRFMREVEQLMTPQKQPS
As to the kind of experiment: FAAH assay: hydrolysis of [3H]AEA by rat brain homogenates. The data set is classed as biochemical. The settings on record: for IC50: 0.5 µM [3H]AEA, rat brain homogenates, read-out: IC50 for inhibition of the hydrolysis of [3H]AEA. On the procedure:
Frozen (−80 °C) brains (minus cerebella) from adult Wistar or Sprague-Dawley rats were thawed and homogenised in 20 mM HEPES, 1 mM MgCl2, pH 7.0. The homogenates were then centrifuged at ∼35000 x g for 20 min at 4 °C followed by washing (by recentrifugation and by resuspension in the buffer) twice before incubation at 37 °C for 15 min in order to hydrolyse all endogenous FAAH substrates. After a further centrifugation, pellets were resuspended in 50 mM Tris-HCl buffer, pH 7.4, containing 1 mM EDTA and 3 mM MgCl2, and frozen at −80 °C in aliquots until used for the assay. For the FAAH assay, test compounds, homogenates and [^3H]AEA (diluted with non-radioactive AEA to give a substrate concentration of 0.5 μM) in 10 mM Tris- HCl, 1 mM EDTA, pH 7.4, containing 1% w/v fatty acid-free bovine serum albumin were incubated for 10 min at 37 °C. Activated charcoal in 0.5 M HCl was added to adsorb the unmetabolized [^3H]AEA and the samples were mixed and left at r.t. for ∼30 min. Following centrifugation at 2000 g for 10 min, aliquots of the supernatants, containing the [^3H]ethanolamine produced by hydrolysis of [^3H]AEA, were analysed for tritium content by liquid scintillation spectroscopy with quench correction. Blank values were obtained by the use of buffer rather than homogenate.
Data were expressed as % of vehicle (ethanol) control and analysed using the algorithm log(inhibitor) vs. response – variable slope (four parameters) built into the GraphPad Prism computer programme v8.3 for the Macintosh (GraphPad Software Inc., San Diego, CA). The programme reports 95% confidence limits (profile likelihood) for the IC50 values and these presented in the results.

Data set [7] concerns the target T3, rat brain FAAH. As to the kind of experiment: FAAH assay: hydrolysis of [3H]AEA by rat brain homogenates. The settings on record: kinetics of inhibition of rat FAAH, mixed-type model. In kind it is biochemical.
The target in data set [8] is T1, ovine COX-1. As to the kind of experiment: COX-1 assay, oxygen electrode (cyclooxygenation of substrate). In kind it is biochemical. Details: purchased Cayman Chemical Co. 60100. The settings on record: 10 µM AA. On the procedure:
(§1) The assay was performed essentially according to the method of Meade et al[21]. An oxygen electrode chamber with integral stirring (Oxygraph System, Hansatech Instruments, King ´s Lynn, U.K.) was calibrated daily to ambient temperature and air pressure. The assay buffer contained 0.1 M Tris-HCl buffer pH 7.4, 1 μM haematin, 2 mM phenol, 5 mM EDTA, 10 μM substrate (AA or 2-AG) in a final assay volume was 2 ml. After addition of test compound, a baseline was established for 5 min before initiation of reaction by addition of 200 units ovine COX-1 or human recombinant COX-2. The change in oxygen consumption as a measurement of enzyme activity was monitored for approximately 5 min.

The target of data set [9] is T2, human recombinant COX-2. Briefly: COX-2 assay, oxygen electrode (cyclooxygenation of AA, 2-AG or AEA). The data set is classed as biochemical. The conditions noted are these: for inhibition of AA cyclooxygenation by COX-2: 10 µM AA. Details: purchased Cayman Chemical Co. 60122. On the procedure: as §1
Data set [10] has as its target T3, rat brain FAAH. The settings on record: removal of the methyl group at the C-2 carbon atom; cited from earlier work.

Turning to “2–(4-isobutylphenyl)-N-(3-methylpyridin-2-yl)propenamide [Ibu-AM5]”, the “analgesic activity, acetic acid-induced visceral nociception” value in data set [1] is reported as “analgesic activity”. Besides, the IC50 is around 50000 nM at ovine COX-1 [2] and around 3000 nM on human recombinant COX-2 [3] (read-out: concentration reducing the rate of cyclooxygenation to about half, COX-2, AEA as substrate). Also, the “effect upon COX-2 with AA as substrate” value on human recombinant COX-2 [3] (100 µM Ibu-AM5) is recorded as “without effect”. Also, the ulcerogenic potency entry in [4] is reported as “without appreciable ulcerogenic potency”.
In the case of `CCCCCCNC(=O)Oc1cccc(-c2ccc(C(C)C(=O)O)cc2F)c1` (racemic) [ARN2508, (±)−2-[3-fluoro-4-[3-(hexylcarbamoyloxy)phenyl]phenyl]propanoic acid], the IC50 with FAAH was 31 nM; in the data set with COX-1, 12 nM; in the data set on COX-2, 420 nM. Also, in [5], the “anti-inflammatory effects in vivo” value is “produced anti-inflammatory effects in vivo”. In addition, the gastric irritation result in data set [5] (in vivo) is given as “without causing gastric irritation”.
For `Cc1ccccc1NC(=O)C(C)c1ccc(CC(C)C)cc1` (centres unmarked) [Ibu-AM38, 2–(4-Isobutylphenyl)-N-(o-tolyl)propanamide], the IC50 at rat brain FAAH [6] was 2000 nM.
On to `CC(C)Cc1ccc(C(C)C(=O)Nc2ncccc2Cl)cc1` (centres unmarked) [Ibu-AM58, N-(3-Chloropyridin-2-yl)-2-(4-isobutylphenyl)propanamide], for which the IC50 on rat brain FAAH [6] was found to be 910 nM.
Still for that read-out and setting: for `CC(C)Cc1ccc(C(C)C(=O)Nc2ccccc2O)cc1` (centres unmarked) [Ibu-AM59, N-(2-Hydroxyphenyl)-2-(4-isobutylphenyl)propanamide] the value was 8500 nM.
`CC(C)Cc1ccc(C(C)C(=O)Nc2ncccc2C(F)(F)F)cc1` (centres unmarked) [Ibu-AM60, 2-(4-Isobutylphenyl)-N-(3-(trifluoromethyl)pyridin-2-yl)propanamide] gave a melting point of 112 to 114 °C. For the same compound, the IC50 on rat brain FAAH [6] was found to be 360 nM.
Consider `CC(C)Cc1ccc(C(C)C(=O)Nc2ccc(O)cc2)cc1` (centres unmarked) [Ibu-AM65, N-(4-Hydroxyphenyl)-2-(4-isobutylphenyl)propanamide], for which the IC50 at rat brain FAAH [6] worked out at 3800 nM.
Take `Cc1cc(O)ccc1NC(=O)C(C)c1ccc(CC(C)C)cc1` (centres unmarked) [Ibu-AM66, N-(4-Hydroxy-2-methylphenyl)-2-(4-isobutylphenyl)propanamide]: the melting point fell in the range of 133 to 135 °C. Besides, the IC50 at rat brain FAAH [6] is 350 nM.
`COc1ccc(NC(=O)C(C)c2ccc(CC(C)C)cc2)c(C)c1` (centres unmarked) [Ibu-AM67, 2-(4-Isobutylphenyl)-N-(4-methoxy-2-methylphenyl)propanamide]: the melting point lay within 100 to 102 °C. The IC50 at rat brain FAAH [6] came to 7900 nM.
Regarding `CC(C)Cc1ccc(C(C)C(=O)Nc2ncccc2Br)cc1` (centres unmarked) [Ibu-AM68, N-(3-Bromopyridin-2-yl)−2-(4-isobutylphenyl)propanamide], at rat brain FAAH [6], the IC50 was 83 nM. For the same compound, the “mode of inhibition of FAAH” value at rat brain FAAH [6] (60 min preincubation, 20-fold dilution, kinetic experiments) was “reversible, mixed-type mechanism of inhibition; also recorded: reversible mixed inhibitor”. Further, on rat brain FAAH [6] (preincubation with homogenates for up to 60 min prior to addition of substrate), the “time-dependence of the inhibition” value is “no time-dependence of the inhibition”. In addition, on rat brain FAAH [7], the Ki worked out at 260 nM. Also, the “α value (ratio of the Ki intercept: Ki slope values)” value on rat brain FAAH [7] is listed as 4.9. In addition, the “inhibition of AA cyclooxygenation by COX-1” value is listed as “modest inhibition” on ovine COX-1 [8] (10 µM compound); “complete inhibition” on ovine COX-1 [8] (50 and 100 µM compound). Also, the “inhibition of 2-AG cyclooxygenation by COX-2” value on human recombinant COX-2 [9] (10 µM compound, 10 µM 2-AG) was “greatly reduced; also recorded: almost completely inhibited”. Further, the “inhibition of AA cyclooxygenation by COX-2” value at human recombinant COX-2 [9] (10 µM compound) was “did not inhibit”; on human recombinant COX-2 [9] (50 and 100 µM compound), “did not inhibit”.
As for `CC(C)Cc1ccc(C(C)C(=O)Nc2ncccc2I)cc1` (centres unmarked) [Ibu-AM69, N-(3-Iodopyridin-2-yl)-2-(4-isobutylphenyl)propanamide], the IC50 on rat brain FAAH [6] came to 120 nM.
As for `CC(C)Cc1ccc(C(C)C(=O)Nc2ncccc2O)cc1` (centres unmarked) [Ibu-AM70, N-(3-Hydroxypyridin-2-yl)-2-(4-isobutylphenyl)propenamide], on rat brain FAAH [6], the IC50 is 2700 nM.
Same read-out and setting: with `Cc1cccnc1NC(=O)C(C)(C)c1ccc(CC(C)C)cc1` [Ibu-AM72, 2-(4-Isobutylphenyl)-2-methyl-N-(3-methylpyridin-2-yl)propanamide] the figure was 1000 nM; with `Cc1cccnc1NC(=O)C1(c2ccc(CC(C)C)cc2)CC1` [Ibu-AM73], 4100 nM.
`Cc1cccnc1NC(=O)Cc1ccc(CC(C)C)cc1` [Ibufenac-AM1]: the “reduction of FAAH inhibitory potency relative to Ibu-AM5” value at rat brain FAAH [10] is “roughly 60 fold”.

One may read the melting point as the temperature of the solid-liquid transition. What is called Ki is the equilibrium dissociation constant of an inhibitor or competing ligand from its target.

These data come from publication PMC7144264 (Journal of Enzyme Inhibition and Medicinal Chemistry, 2020).
